Measured values reported in ChEMBL document CHEMBL4825716, “Novel N-Heteroaryl Quinazolin-2-amine Derivatives as LRRK2 Inhibitors for Treating Parkinson's Disease” (ACS Med Chem Lett, 2021).

Molecular target: Leucine-rich repeat serine/threonine-protein kinase 2 (Homo sapiens, UniProt Q5S007, G2019S)
Assay: Inhibition of Kinase tracer 236 binding to GST-tagged truncated human LRRK2 G2019S (970 to 2527 residues) mutant using fluorescein labeled LRRKtide peptide as substrate preincubated for 15 mins followed by substrate addition measured after 90 mins in presence of ATP at Km concentration by TR-FRET Lanthascreen assay

Leucine-rich repeat serine/threonine-protein kinase 2, sequence (Q5S007 whole entry G2019S, the tested form may be a part): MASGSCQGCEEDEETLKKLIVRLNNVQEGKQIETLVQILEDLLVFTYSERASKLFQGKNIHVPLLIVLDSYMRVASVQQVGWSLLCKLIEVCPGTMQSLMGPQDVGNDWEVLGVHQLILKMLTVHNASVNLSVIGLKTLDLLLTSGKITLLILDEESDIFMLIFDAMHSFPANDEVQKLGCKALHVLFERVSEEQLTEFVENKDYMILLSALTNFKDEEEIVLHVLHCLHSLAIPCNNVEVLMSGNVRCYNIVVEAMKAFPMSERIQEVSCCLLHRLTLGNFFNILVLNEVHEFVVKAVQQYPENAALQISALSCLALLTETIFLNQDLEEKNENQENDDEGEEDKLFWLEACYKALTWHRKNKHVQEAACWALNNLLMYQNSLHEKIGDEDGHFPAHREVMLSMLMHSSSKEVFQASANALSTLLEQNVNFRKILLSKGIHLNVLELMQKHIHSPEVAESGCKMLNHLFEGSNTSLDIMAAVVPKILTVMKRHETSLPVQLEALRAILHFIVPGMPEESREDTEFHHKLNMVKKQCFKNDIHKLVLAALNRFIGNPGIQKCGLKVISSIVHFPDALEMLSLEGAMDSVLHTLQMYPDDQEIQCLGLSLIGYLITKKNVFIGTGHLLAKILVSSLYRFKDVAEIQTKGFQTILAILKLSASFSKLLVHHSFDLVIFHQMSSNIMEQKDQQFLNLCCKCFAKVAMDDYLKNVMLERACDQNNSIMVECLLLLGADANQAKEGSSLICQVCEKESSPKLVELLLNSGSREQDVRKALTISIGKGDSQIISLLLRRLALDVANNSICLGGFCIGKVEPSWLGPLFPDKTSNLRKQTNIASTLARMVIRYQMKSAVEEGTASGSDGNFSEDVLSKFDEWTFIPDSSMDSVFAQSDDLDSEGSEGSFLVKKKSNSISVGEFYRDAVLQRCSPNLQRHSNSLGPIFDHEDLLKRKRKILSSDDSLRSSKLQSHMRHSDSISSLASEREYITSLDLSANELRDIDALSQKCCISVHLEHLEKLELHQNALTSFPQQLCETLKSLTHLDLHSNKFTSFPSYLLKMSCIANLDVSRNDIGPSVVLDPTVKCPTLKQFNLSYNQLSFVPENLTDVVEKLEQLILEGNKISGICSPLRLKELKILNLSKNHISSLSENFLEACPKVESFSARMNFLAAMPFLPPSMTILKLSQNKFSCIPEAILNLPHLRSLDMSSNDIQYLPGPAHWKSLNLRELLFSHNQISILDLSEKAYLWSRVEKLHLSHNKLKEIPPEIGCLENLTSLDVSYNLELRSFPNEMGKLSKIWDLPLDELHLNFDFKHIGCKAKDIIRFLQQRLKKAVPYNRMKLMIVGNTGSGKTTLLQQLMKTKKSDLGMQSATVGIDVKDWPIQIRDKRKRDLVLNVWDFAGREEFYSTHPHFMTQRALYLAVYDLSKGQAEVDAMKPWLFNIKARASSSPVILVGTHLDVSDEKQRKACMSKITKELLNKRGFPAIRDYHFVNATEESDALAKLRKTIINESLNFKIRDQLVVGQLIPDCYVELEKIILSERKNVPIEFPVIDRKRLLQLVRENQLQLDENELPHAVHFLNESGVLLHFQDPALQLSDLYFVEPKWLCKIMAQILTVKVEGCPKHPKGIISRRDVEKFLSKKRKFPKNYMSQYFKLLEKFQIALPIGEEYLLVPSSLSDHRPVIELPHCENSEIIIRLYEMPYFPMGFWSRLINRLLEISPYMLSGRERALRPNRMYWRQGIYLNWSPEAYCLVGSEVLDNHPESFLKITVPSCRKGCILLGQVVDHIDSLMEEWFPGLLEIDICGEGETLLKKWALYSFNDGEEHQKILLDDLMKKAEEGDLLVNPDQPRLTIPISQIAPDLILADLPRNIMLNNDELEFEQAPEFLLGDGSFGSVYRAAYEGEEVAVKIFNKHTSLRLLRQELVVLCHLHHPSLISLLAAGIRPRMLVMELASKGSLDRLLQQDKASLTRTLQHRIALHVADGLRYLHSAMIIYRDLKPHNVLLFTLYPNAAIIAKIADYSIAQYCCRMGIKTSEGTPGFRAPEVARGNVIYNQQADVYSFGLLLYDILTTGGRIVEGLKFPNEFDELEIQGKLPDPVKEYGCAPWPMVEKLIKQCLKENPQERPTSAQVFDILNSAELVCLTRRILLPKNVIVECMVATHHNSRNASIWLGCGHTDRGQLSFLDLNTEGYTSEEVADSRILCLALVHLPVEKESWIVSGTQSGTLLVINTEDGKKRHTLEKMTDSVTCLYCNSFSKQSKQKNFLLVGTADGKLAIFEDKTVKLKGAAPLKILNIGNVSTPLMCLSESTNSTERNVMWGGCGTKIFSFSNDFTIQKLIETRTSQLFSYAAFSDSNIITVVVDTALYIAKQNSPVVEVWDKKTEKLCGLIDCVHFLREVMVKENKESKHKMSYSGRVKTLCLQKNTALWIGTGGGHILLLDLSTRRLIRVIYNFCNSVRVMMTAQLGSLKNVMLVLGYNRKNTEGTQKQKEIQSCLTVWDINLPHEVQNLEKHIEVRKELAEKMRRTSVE

| IC50 [nM] | Compound |
| --- | --- |
| < 0.631 | Cc1c(Nc2ncc3cc(Cl)c(C4CCN(C5COCC5F)CC4)cc3n2)cnn1C1CC1 (stereo unspecified) |
| < 0.631 | N#CC1COCC1N1CCC(c2cc3nc(Nc4cnn(C5CC5)c4Cl)ncc3cc2Cl)CC1 (stereo unspecified) |

Further lines, the compound ahead of its results:

| Compound | IC50 [nM] |
| --- | --- |
| Cc1cc(Nc2ncc3cc(Cl)c(C4CCN(C5COC5)CC4)cc3n2)sn1 | < 0.631 |
| Cc1c(Nc2ncc3cc(Cl)c(C4CCN(C5COC5)[C@@H](C)C4)cc3n2)cnn1C1CC1 (stereo partly specified) | < 0.631 |
| Cc1c(Nc2ncc3cc(Cl)c(C4CCN(C5(C)COC5)CC4)cc3n2)cnn1C1CCOC1 (stereo unspecified) | < 0.631 |
| O=S1(=O)CC(N2CCC(c3cc4nc(Nc5cnn(C6CC6)c5Cl)ncc4cc3Cl)CC2)C1 | < 0.631 |
